Drawing on patent US20260022142A1, “MACROCYCLIC IMMUNOMODULATORS” (Bristol-Myers Squibb Company, priority 2022, published 2026), this text covers IC50 for twelve compounds.

SMILES strings stand for the structures. Bridge positions count the residues as written; N and C are the ends. Square brackets hold non-standard residues; d marks the D form. Peptide text beside a SMILES is read from it. * marks the point of attachment. ξ: configuration not given here. Phe(4-CH2CH2COOH) = N[C@@H](Cc1ccc(CCC(=O)O)cc1)C(=O)O; Bip = N[C@@H](Cc1ccc(-c2ccccc2)cc1)C(=O)O; Phe(3-Me) = Cc1cccc(C[C@H](N)C(=O)O)c1; Val(3-OH) = CC(C)(O)[C@H](N)C(=O)O; hArg = N=C(N)NCCCC[C@H](N)C(=O)O; Cha = N[C@@H](CC1CCCCC1)C(=O)O; Cit = NC(=O)NCCC[C@H](N)C(=O)O; Thr(3ξ) = CC(O)[C@H](N)C(=O)O; X20 = CN(CCCCCCCCCCC(=O)O)*; 12Ado = NCCCCCCCCCCCC(=O)O; Carboxymethyl = O=C(O)C*; Orn = NCCC[C@H](N)C(=O)O; Aun = NCCCCCCCCCCC(=O)O; Dab = NCC[C@H](N)C(=O)O; Dap = NC[C@H](N)C(=O)O; AEEA = NCCOCCOCC(=O)O; Piv = CC(C)(C)C(=O)*; ξDab = NCCC(N)C(=O)O

T1 sequence (Q15116 25-288): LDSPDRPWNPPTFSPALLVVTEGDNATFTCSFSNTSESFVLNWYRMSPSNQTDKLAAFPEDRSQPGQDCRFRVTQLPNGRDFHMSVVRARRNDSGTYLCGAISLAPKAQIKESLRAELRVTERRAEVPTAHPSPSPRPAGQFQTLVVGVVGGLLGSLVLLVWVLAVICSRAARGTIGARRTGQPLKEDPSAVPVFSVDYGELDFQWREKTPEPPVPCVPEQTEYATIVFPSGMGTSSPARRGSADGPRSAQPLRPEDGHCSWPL

The experiment has as its target T1, PD-1/PD-L1 interaction (PE-labeled human PD-L1-Ig binding to Jurkat cell line over-expressing human PD-1) (Homo sapiens, UniProt Q15116).
T1 construct: expressed in transfected cells; host or cells: Jurkat
The experiment in a line: Jurkat-PD-1 Cell Binding High-Content Screening Assay (CBA). The following applies: Jurkat cell line over-expressing human PD-1; PE-labeled PD-L1-Ig 20 nM final; read-out: Jurkat hPD1-PDL1 IC50. The class given is cell-based. Put shortly: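 Jurkat cells stably over-expressing human PD-1 were seeded in DMEM with 10% fetal calf serum and pre-incubated with compound for 2 h at 37° C. PE-labeled human PD-L1-Ig was then added at 20 nM final for 1 hour, after which cells were fixed with paraformaldehyde, Hoechst-stained and imaged by high-content microscopy.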
In general, IC50 refers to the midpoint of a concentration-inhibition curve. For `Cc1cccc(C[C@@H]2NC(=O)[C@H](CC(=O)O)NC(=O)[C@H](Cc3ccc(OCC(=O)O)cc3)NC(=O)[C@H](CCCNC(=N)N)NC(=O)CSC[C@@H](C(=O)NC(CCN)C(=O)NCCCCCCCCCCCC(=O)O)NC(=O)[C@H](C(C)O)NC(=O)[C@H](C(C)C)NC(=O)[C@H](CC3CCCCC3)NC(=O)[C@H](Cc3c[nH]cn3)NC(=O)[C@@H](CC(C)C)NC(=O)[C@H](CCCN)NC(=O)[C@H](CCCNC(N)=O)NC(=O)[C@H](Cc3ccc(-c4ccccc4)cc3)NC(=O)[C@H](C(C)C)NC2=O)c1` (stereo partly drawn) [Compound 3501] ({CH2CO}-RY(Carboxymethyl)D[Phe(3-Me)]V[Bip][Cit][Orn][dL]H[Cha]V[Thr(3ξ)]C[ξDab][12Ado]-OH; thioether N-14), the IC50 is 103 nM.

As for `Cc1cccc(C[C@@H]2NC(=O)[C@H](CC(=O)O)NC(=O)[C@H](Cc3ccc(OCC(=O)O)cc3)NC(=O)[C@H](Cc3ccc(OCC(=O)O)cc3)NC(=O)CSC[C@@H](C(=O)NC(CCN)C(=O)NCCCCCCCCCCCC(=O)O)NC(=O)[C@H](C(C)O)NC(=O)[C@H](C(C)C)NC(=O)[C@H](CC3CCCCC3)NC(=O)[C@H](Cc3cnc[nH]3)NC(=O)[C@@H](CC(C)C)NC(=O)[C@H](CCCN)NC(=O)[C@H](CCCNC(N)=O)NC(=O)[C@H](Cc3ccc(-c4ccccc4)cc3)NC(=O)[C@H](C(C)C)NC2=O)c1` (stereo partly drawn) [Compound 3502] ({CH2CO}-Y(Carboxymethyl)Y(Carboxymethyl)D[Phe(3-Me)]V[Bip][Cit][Orn][dL]H[Cha]V[Thr(3ξ)]C[ξDab][12Ado]-OH; thioether N-14), the half-maximal inhibitory concentration (IC50) turned out to be 63.1 nM.

Regarding `Cc1cccc(C[C@@H]2NC(=O)[C@H](CC(=O)O)NC(=O)[C@H](Cc3ccc(OCC(=O)O)cc3)NC(=O)[C@H](C(C)O)NC(=O)CSC[C@@H](C(=O)NC(CCN)C(=O)NCCCCCCCCCCC(=O)O)NC(=O)[C@H](C(C)O)NC(=O)[C@H](C(C)C)NC(=O)[C@H](CC3CCCCC3)NC(=O)[C@H](Cc3cnc[nH]3)NC(=O)[C@@H](CC(C)C)NC(=O)[C@H](CCCN)NC(=O)[C@H](CCCNC(N)=O)NC(=O)[C@H](Cc3ccc(-c4ccccc4)cc3)NC(=O)[C@H](C(C)C)NC2=O)c1` (stereo partly drawn) [Compound 3503] ({CH2CO}-[Thr(3ξ)]Y(Carboxymethyl)D[Phe(3-Me)]V[Bip][Cit][Orn][dL]H[Cha]V[Thr(3ξ)]C[ξDab][Aun]-OH; thioether N-14), the IC50 is 38.2 nM.

For `Cc1cccc(C[C@@H]2NC(=O)[C@H](CC(=O)O)NC(=O)[C@H](Cc3ccc(OCC(=O)O)cc3)NC(=O)[C@H](C(C)O)NC(=O)CSC[C@@H](C(=O)NC(CCN)C(=O)NCCCCCCCCCCCC(=O)O)NC(=O)[C@H](C(C)O)NC(=O)[C@H](C(C)C)NC(=O)[C@H](CC3CCCCC3)NC(=O)[C@H](CCN)NC(=O)[C@@H](CC(C)C)NC(=O)[C@H](CCCN)NC(=O)[C@H](CCCNC(N)=O)NC(=O)[C@H](Cc3ccc(-c4ccccc4)cc3)NC(=O)[C@H](C(C)C)NC2=O)c1` (stereo partly drawn) [Compound 3504] ({CH2CO}-[Thr(3ξ)]Y(Carboxymethyl)D[Phe(3-Me)]V[Bip][Cit][Orn][dL][Dab][Cha]V[Thr(3ξ)]C[ξDab][12Ado]-OH; thioether N-14), the IC50 amounted to 26.2 nM.

As for `CC(=O)NCCCC[C@@H]1NC(=O)[C@H](Cc2ccc(-c3ccccc3)cc2)NC(=O)[C@H](Cc2ccc(O)cc2)NC(=O)[C@H](Cc2cccc(C)c2)NC(=O)[C@H](CC(=O)O)NC(=O)[C@H](Cc2ccc(OCC(=O)O)cc2)NC(=O)[C@H](CCCCNC(=N)N)NC(=O)CSC[C@@H](C(=O)N[C@@H](CCN)C(=O)NCCCCCCCCCCC(=O)O)NC(=O)[C@H](C(C)O)NC(=O)[C@H](C(C)C)NC(=O)[C@H](CC2CCCCC2)NC(=O)[C@H](CCN)NC(=O)[C@@H](CC(C)C)NC(=O)[C@H](CCCN)NC1=O` (stereo partly drawn) [Compound 3505] ({CH2CO}-[hArg]Y(Carboxymethyl)D[Phe(3-Me)]Y[Bip]K(Ac)[Orn][dL][Dab][Cha]V[Thr(3ξ)]C[Dab][Aun]-OH; thioether N-14), the half-maximal inhibitory concentration (IC50) worked out at 16.6 nM.

For `Cc1cccc(C[C@@H]2NC(=O)[C@H](CC(=O)O)NC(=O)[C@H](Cc3ccc(OCC(=O)O)cc3)NC(=O)[C@H](CCCNC(=N)N)NC(=O)CSC[C@@H](C(=O)N[C@@H](CCN)C(=O)NCCCCCCCCCCC(=O)O)NC(=O)[C@H](C(C)O)NC(=O)[C@H](CO)NC(=O)[C@H](CC3CCCCC3)NC(=O)[C@H](CCN)NC(=O)[C@@H](CC(C)C)NC(=O)[C@H](CCCN)NC(=O)[C@H](Cc3ccc(OCC(=O)O)cc3)NC(=O)[C@H](Cc3ccc(-c4ccccc4)cc3)NC(=O)[C@H](Cc3ccc(CCC(=O)O)cc3)NC2=O)c1` (stereo partly drawn) [Compound 3506] ({CH2CO}-RY(Carboxymethyl)D[Phe(3-Me)][Phe(4-CH2CH2COOH)][Bip]Y(Carboxymethyl)[Orn][dL][Dab][Cha]S[Thr(3ξ)]C[Dab][Aun]-OH; thioether N-14), the IC50 turned out to be 15.1 nM.

For `CC(=O)NCCCC[C@@H]1NC(=O)[C@H](Cc2ccc(-c3ccccc3)cc2)NC(=O)[C@H](Cc2ccc(O)cc2)NC(=O)[C@H](Cc2cccc(C)c2)NC(=O)[C@H](CC(=O)O)NC(=O)[C@H](Cc2ccc(OCC(=O)O)cc2)NC(=O)[C@H](CCCNC(=N)N)NC(=O)CSC[C@@H](C(=O)N[C@@H](CCN)C(=O)NCCCCCCCCCCC(=O)O)NC(=O)[C@H](C(C)O)NC(=O)[C@H](CO)NC(=O)[C@H](CC2CCCCC2)NC(=O)[C@H](CCN)NC(=O)[C@@H](CC(C)C)NC(=O)[C@H](CCCN)NC1=O` (stereo partly drawn) [Compound 3507] ({CH2CO}-RY(Carboxymethyl)D[Phe(3-Me)]Y[Bip]K(Ac)[Orn][dL][Dab][Cha]S[Thr(3ξ)]C[Dab][Aun]-OH; thioether N-14), the half-maximal inhibitory concentration (IC50) came to 39.7 nM.

For `CC(=O)NCCCC[C@@H]1NC(=O)[C@H](Cc2ccc(-c3ccccc3)cc2)NC(=O)[C@H](Cc2ccc(O)cc2)NC(=O)[C@H](Cc2cccc(C)c2)NC(=O)[C@H](CC(=O)O)NC(=O)[C@H](Cc2ccc(OCC(=O)O)cc2)NC(=O)[C@H](CCCNC(=N)N)NC(=O)CSC[C@@H](C(=O)N[C@@H](CCN)C(=O)NCCCCCCCCCCC(=O)O)NC(=O)[C@H](C(C)O)NC(=O)[C@H](C(C)C)NC(=O)[C@H](CC2CCCCC2)NC(=O)[C@H](CCN)NC(=O)[C@@H](CC(C)C)NC(=O)[C@H](CCCN)NC1=O` (stereo partly drawn) [Compound 3508] ({CH2CO}-RY(Carboxymethyl)D[Phe(3-Me)]Y[Bip]K(Ac)[Orn][dL][Dab][Cha]V[Thr(3ξ)]C[Dab][Aun]-OH; thioether N-14), the IC50 came out at 14.4 nM.

`Cc1cccc(C[C@@H]2NC(=O)[C@H](CC(=O)O)NC(=O)[C@H](Cc3ccc(OCC(=O)O)cc3)NC(=O)[C@H](Cc3ccc(OCC(=O)O)cc3)NC(=O)CSC[C@@H](C(=O)NCCOCCOCC(=O)N(C)CCCCCCCCCCC(=O)O)NC(=O)[C@H](C(C)O)NC(=O)[C@H](C(C)C)NC(=O)[C@H](CC3CCCCC3)NC(=O)[C@H](CCN)NC(=O)[C@@H](CC(C)C)NC(=O)[C@H](CCCN)NC(=O)[C@H](CCCNC(N)=O)NC(=O)[C@H](Cc3ccc(-c4ccccc4)cc3)NC(=O)[C@H](C(C)C)NC2=O)c1` (stereo partly drawn) [Compound 3509] ({CH2CO}-Y(Carboxymethyl)Y(Carboxymethyl)D[Phe(3-Me)]V[Bip][Cit][Orn][dL][Dab][Cha]V[Thr(3ξ)]C[AEEA]-X20; thioether N-14): the IC50 was found to be 136 nM.

Consider `Cc1cccc(C[C@@H]2NC(=O)[C@H](CC(=O)O)NC(=O)[C@H](Cc3ccc(OCC(=O)O)cc3)NC(=O)[C@H](CCCNC(=N)N)NC(=O)CSC[C@@H](C(=O)N[C@@H](CNC(=O)C(C)(C)C)C(=O)NCCCCCCCCCCC(=O)O)NC(=O)[C@H](C(C)O)NC(=O)[C@H](C(C)C)NC(=O)[C@H](CC3CCCCC3)NC(=O)[C@H](CCN)NC(=O)[C@@H](CC(C)C)NC(=O)[C@H](CCCN)NC(=O)[C@H](CCCNC(N)=O)NC(=O)[C@H](Cc3ccc(-c4ccccc4)cc3)NC(=O)[C@H](C(C)C)NC2=O)c1` (stereo partly drawn) [Compound 3510] ({CH2CO}-RY(Carboxymethyl)D[Phe(3-Me)]V[Bip][Cit][Orn][dL][Dab][Cha]V[Thr(3ξ)]C[Dap](Piv)[Aun]-OH; thioether N-14), for which the IC50 was 55.3 nM.

Consider `Cc1cccc(C[C@@H]2NC(=O)[C@H](CC(=O)O)NC(=O)[C@H](Cc3ccc(OCC(=O)O)cc3)NC(=O)[C@H](CCNC(=O)C(C)(C)C)NC(=O)CSC[C@@H](C(=O)N[C@@H](CCN)C(=O)NCCCCCCCCCCC(=O)O)NC(=O)[C@H](C(C)O)NC(=O)[C@H](C(C)C)NC(=O)[C@H](CC3CCCCC3)NC(=O)[C@H](CCN)NC(=O)[C@@H](CC(C)C)NC(=O)[C@H](CCCN)NC(=O)[C@H](CCCNC(N)=O)NC(=O)[C@H](Cc3ccc(-c4ccccc4)cc3)NC(=O)[C@H](C(C)C)NC2=O)c1` (stereo partly drawn) [Compound 3511] ({CH2CO}-[Dab](Piv)Y(Carboxymethyl)D[Phe(3-Me)]V[Bip][Cit][Orn][dL][Dab][Cha]V[Thr(3ξ)]C[Dab][Aun]-OH; thioether N-14), for which the half-maximal inhibitory concentration (IC50) was 21.7 nM.

On to `Cc1cccc(C[C@@H]2NC(=O)[C@H](CC(=O)O)NC(=O)[C@H](Cc3ccc(OCC(=O)O)cc3)NC(=O)[C@H](CCCNC(=N)N)NC(=O)CSC[C@@H](C(=O)N[C@@H](CCN)C(=O)NCCCCCCCCCCC(=O)O)NC(=O)[C@H](C(C)O)NC(=O)[C@H](C(C)(C)O)NC(=O)[C@H](CC3CCCCC3)NC(=O)[C@H](CCN)NC(=O)[C@@H](CC(C)C)NC(=O)[C@H](CCCN)NC(=O)[C@H](CCCNC(N)=O)NC(=O)[C@H](Cc3ccc(-c4ccccc4)cc3)NC(=O)[C@H](C(C)C)NC2=O)c1` (stereo partly drawn) [Compound 3512] ({CH2CO}-RY(Carboxymethyl)D[Phe(3-Me)]V[Bip][Cit][Orn][dL][Dab][Cha][Val(3-OH)][Thr(3ξ)]C[Dab][Aun]-OH; thioether N-14), for which the IC50 was 18.2 nM.
